Structures can show the parent of a compound that is named as a salt.
Key:
[1] = system: edema formation induced using histamine as an agonist; assay: Miles assay with histamine as agonist; format: in vivo, Sprague-Dawley rats; details: 1.5 mg/kg; histamine 10 μg/injection site; vehicle 12
Procedure: Sprague-Dawley rats were first injected IV with vehicle alone or test agent, followed by IV injection of Evans blue dye, followed by intradermal injections of saline and VEGF (200 ng/injection site) along both shaved flanks. After 45 min, intradermal injection sites were photographed and then scored by a blinded observer for extravasation of Evans blue dye into the dermis (dermal bluing) according to a 4 point scoring system (3=maximal bluing, ≧75% of response in vehicle-treated animals; 2=medium bluing, >25% but <75% of vehicle-treated animals; 1=minimal bluing, ≦25% of vehicle-treated animals; 0=bluing equivalent to saline injection sites on same animal). Individual scores for 4 injection sites (from 2 separate animals) were summed and are shown as a scale of 0-12, with a lower score indicating the greater anti-edema activity; note that all vehicle-treated groups score a value of 12, based on the scoring system outlined above.
The ability of test agents to influence edema induced by agonists other than VEGF was also tested. Compounds cited in this application inhibited edema formation induced using histamine as an agonist, for example, as shown below.
The ability of test agent to influence vascular edema was tested as above, except that the ability to block edema was tested using either VEGF or histamine as the agonist (200 ng and 10 μg/injection site, respectively).

[2] = system: acute myocardial infarct; assay: Rat acute myocardial infarct model (60 min LAD occlusion, reperfusion); format: in vivo, Sprague-Dawley rats; details: 1.5 mg/kg IV at 90 min post-reperfusion, 24 hr
Procedure: A rodent model of acute myocardial infarct, in which the proximal left anterior descending coronary artery (LAD) is occluded for 60 min followed by reperfusion, was used to determine whether test agents reduced infarct size at 24 hours.
Myocardial infarcts were created in Sprague-Dawley rats (200-300 g body weight) by a 60 min occlusion of the LAD followed by LAD reperfusion. At 90 min post-reperfusion, either vehicle alone or test agents were injected IV. At 24 hr post-treatment, the ischemic zone (area at-risk, AAR) was delineated by re-ligation of the LAD followed by IV injection of alkali blue dye, after which hearts were sectioned along the short axis and stained using triphenyltetrazolium chloride to delineate viable from infarcted myocardium. Photographic images were then analyzed using morphometric software to calculate infarct area as a percent of the at-risk area.
The following studies were performed as described above, except that the timing of 3-[2,4-diamino-6-(3-hydroxyphenyl)pteridin-7-yl] phenol dihydrochloride salt administration (at 0.1 mg/kg) was varied. In one group, 3-[2,4-diamino-6-(3-hydroxyphenyl)pteridin-7-yl] phenol dihydrochloride salt was administered at both 60 and 240 min post-occlusion.
In a porcine MI model (90 min of LAD occlusion followed by complete reperfusion), a single 0.3 mg/kg IV bolus delivered 30 min post-reperfusion reduced infarct size by […] vs. controls (40% vs. 56%, N=12-13, P=0.03).

[3] = system: cerebral stroke; assay: Cerebral stroke model, permanent middle cerebral artery occlusion; format: in vivo, mice; details: 1 mg/kg BW IV 60 min after ligation, 24 hours
Procedure: A rodent model of cerebral stroke, in which the middle cerebral artery is permanently occluded, was used to determine whether test agents reduced infarct size at 24 hours.
Cerebral strokes were created in mice by permanent ligation of the middle cerebral artery using a cauterizing tool, followed 60 min later by IV injection of either vehicle alone (50% PEG400 in water) or test agents (at 1 mg/kg BW). Twenty four hours later, brains were sectioned and stained using triphenyltetrazolium chloride to delineate viable from infarcted tissue. Photographic images were then analyzed using morphometric software to calculate infarct area.

[4] = system: angiogenesis; assay: Matrigel plug angiogenesis model (bFGF or VEGF), FITC-lectin; format: in vivo, Athymic WeHi (nu/nu) mice; details: 10 mg/kg i.p. bid for four days; matrigel with bFGF or VEGF
Procedure: FIGS. 13 and 14 illustrate the effects of invention compounds for their capacity to inhibit angiogenesis in vivo. […] Tumor extracellular matrix infused with the 160 ng of the described growth factors were injected subcutaneously in a Balb/C mouse. The described invention compound was injected daily at the described concentration for 5 days. After 5 days the animals were sacrificed and angiogenesis quantified based on the binding of fluorescently labeled, endothelium specific FITC-lectin. In the graph, compound A is 6,7-bis(4-hydroxyphenyl)-pteridin-4-ylamine sulfate salt.
Referring to FIGS. 13 and 14, a murine model of angiogenesis was used to screen compounds for their capacity to inhibit angiogenesis. […] In the graph, compound A is 6,7-bis(4-hydroxyphenyl)-pteridin-4-ylamine sulfate salt. Athymic WeHi (nu/nu) mice were first injected with 400 lls of an ice-cold tumor-derived extracellular matrix substrate, matrigel (Becton-Dickinson) infused with 400 ng/ml of bFGF or VEGF (R&D Systems) which rapidly solidifies into a subdermal plug at body temperature. Mice were subsequently injected intaperitoneally with 10 mg/kg of the indicated compounds bid for four days. […] Twenty minutes after injection of the lectin, mice were euthanized, matrigel plugs were then extracted, solublized in PBS with mechanical grinding and the fluorescent content of individual plugs was quantified. […]

In the case of `Nc1ncnc2nc(-c3ccc(O)cc3)c(-c3ccc(O)cc3)nc12` [compound A, 6,7-bis(4-hydroxyphenyl)-pteridin-4-ylamine sulfate salt], the “Score with histamine as agonist (scale of 0-12)” value [1] is reported as 3, the “Infarct (% AAR, mean ± SEM)” value [2] is reported as 60.6 ± 1.8 % AAR and the “% Infarct reduction” value ([2]; vs vehicle) is reported as 20%. The “Infarct area in mm^3 (mean ± SEM)” value [3] was 18.3 ± 2.6 mm^3, the “% Infarct reduction” value ([3]; vs vehicle) was 53% and the “inhibition of angiogenesis in vivo” value [4] was “successfully inhibited angiogenesis in vivo”.
